Experimental data from patent publication US20210238225A1, “PEPTIDOMIMETIC INHIBITORS OF THE PEPTIDYL-PROLYL CIS/TRANS ISOMERASE (PIN1)” (DANA-FARBER CANCER INSTITUTE, INC., priority 2018, published 2021).
Non-standard residues stand in square brackets, D forms with d. Residues, ends and D or L forms follow the SMILES beside them. *: point of attachment. Phe(4-CONH2) = NC(=O)c1ccc(C[C@H](N)C(=O)O)cc1; Bpa = N[C@@H](Cc1ccc(C(=O)c2ccccc2)cc1)C(=O)O; Bip = N[C@@H](Cc1ccc(-c2ccccc2)cc1)C(=O)O; 2Nal = N[C@@H](Cc1ccc2ccccc2c1)C(=O)O; NMeY = CN[C@@H](Cc1ccc(O)cc1)C(=O)O; Cit = NC(=O)NCCC[C@H](N)C(=O)O; Pip = O=C(O)[C@@H]1CCCCN1; X5 = Cc1ccc(CN(C)*)cc1; NHtBu = CC(C)(C)N*; ClAc = O=C(CCl)*

Biological target: Pin1 (GST-Pin1) (Homo sapiens, UniProt Q13526)
Sequence (Q13526 whole entry): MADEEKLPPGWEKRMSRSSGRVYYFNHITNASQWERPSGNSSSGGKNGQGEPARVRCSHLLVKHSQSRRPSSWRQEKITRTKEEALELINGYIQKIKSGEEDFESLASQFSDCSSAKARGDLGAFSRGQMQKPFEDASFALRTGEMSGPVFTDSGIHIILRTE
Assay: Fluorescence polarization (FP) assay, binding to Pin1
Settings: competition with fluorescein-labeled peptide probe; 12 hours pre-incubation at 4° C.; Kenakin Ki equation; read-out: Ki, μM (FP Assay)

| Ki | SMILES |
| --- | --- |
| 0.33 µM | NC(=O)c1ccc(C[C@H](NC(=O)[C@H](Cc2ccc3ccccc3c2)NC(=O)[C@@H]2CCCCN2C(=O)[C@H](CCC(=O)O)NC(=O)CCl)C(N)=O)cc1 [Compound 2-9, (S)-5-((S)-2-(((S)-1-(((S)-1-Amino-3-(4-carbamoylphenyl)-1-oxopropan-2-yl)amino)-3-(naphthalen-2-yl)-1-oxopropan-2-yl)carbamoyl)piperidin-1-yl)-4-(2-chloroacetamido)-5-oxopentanoic acid] (ClAc-E[Pip][2Nal][Phe(4-CONH2)]-NH2) |
| 0.19 µM | N=C(N)NCCC[C@H](NC(=O)[C@H](Cc1ccc(-c2ccccc2)cc1)NC(=O)[C@@H]1CCCCN1C(=O)[C@H](CCC(=O)O)NC(=O)CCl)C(N)=O [Compound 2b-9, (S)-5-((S)-2-(((S)-3-([1,1′-Biphenyl]-4-yl)-1-(((S)-1-amino-5-guanidino-1-oxopentan-2-yl)amino)-1-oxopropan-2-yl)carbamoyl)piperidin-1-yl)-4-(2-chloroacetamido)-5-oxopentanoic acid] (ClAc-E[Pip][Bip]R-NH2) |
| 0.14 µM | COC(=O)CC[C@H](NC(=O)CCl)C(=O)N1CCCC[C@H]1C(=O)N[C@@H](Cc1ccc2ccccc2c1)C(=O)N[C@@H](CCCNC(N)=O)C(N)=O [Compound 2-18, Methyl (S)-5-((S)-2-(((S)-1-(((S)-1-amino-1-oxo-5-ureidopentan-2-yl)amino)-3-(naphthalen-2-yl)-1-oxopropan-2-yl)carbamoyl)piperidin-1-yl)-4-(2-chloroacetamido)-5-oxopentanoate] (ClAc-E(OMe)[Pip][2Nal][Cit]-NH2) |
| > 10 µM | COC(=O)CC[C@H](NC(=O)CCl)C(=O)N1CCCC[C@H]1C(=O)N[C@@H](Cc1c[nH]c2ccccc12)C(=O)N(C)[C@@H](Cc1ccc(O)cc1)C(N)=O [Compound 2-28, Methyl (S)-5-((S)-2-(((S)-1-(((S)-1-amino-3-(4-hydroxyphenyl)-1-oxopropan-2-yl)(methyl)-amino)-3-(1H-indol-3-yl)-1-oxopropan-2-yl)carbamoyl)piperidin-1-yl)-4-(2-chloroacetamido)-5-oxopentanoate] (ClAc-E(OMe)[Pip]W[NMeY]-NH2) |
| 0.11 µM | NC(=O)NCCC[C@H](NC(=O)[C@H](Cc1ccc(C(=O)c2ccccc2)cc1)NC(=O)[C@@H]1CCCCN1C(=O)[C@H](CCC(=O)O)NC(=O)CCl)C(N)=O [Compound 2-17, (S)-5-((S)-2-(((S)-1-(((S)-1-Amino-1-oxo-5-ureidopentan-2-yl)amino)-3-(4-benzoylphenyl)-1-oxopropan-2-yl)carbamoyl)piperidin-1-yl)-4-(2-chloroacetamido)-5-oxopentanoic acid] (ClAc-E[Pip][Bpa][Cit]-NH2) |

| SMILES | Ki |
| --- | --- |
| CC(C)(C)NC(=O)[C@H](CCCNC(N)=O)NC(=O)[C@H](Cc1c[nH]c2ccccc12)NC(=O)[C@@H]1CCCCN1C(=O)[C@H](Cc1ccccc1)NC(=O)CCl [Compound 11-31, (S)—N—((S)-1-(((S)-1-(tert-Butylamino)-1-oxo-5-ureidopentan-2-yl)amino)-3-(1H-indol-3-yl)-1-oxopropan-2-yl)-1-((2-chloroacetyl)-L-phenylalanyl)piperidine-2-carboxamide] (ClAc-F[Pip]W[Cit]-NHtBu) | 0.023 µM |
| Cc1ccc(CN(C)C(=O)[C@H](CCCNC(N)=O)NC(=O)[C@H](Cc2c[nH]c3ccccc23)NC(=O)[C@@H]2CCCCN2C(=O)[C@H](CCC(=O)O)NC(=O)CCl)cc1 [Compound 11-9, (S)-5-((S)-2-(((S)-3-(1H-Indol-3-yl)-1-(((S)-1-(methyl(4-methylbenzyl)amino)-1-oxo-5-ureidopentan-2-yl)amino)-1-oxopropan-2-yl)carbamoyl)piperidin-1-yl)-4-(2-chloroacetamido)-5-oxopentanoic acid] (ClAc-E[Pip]W[Cit]-X5) | 0.31 µM |
